Source: patent US5672603A, “Apoptosis regulating composition” (Otsuka Pharmaceutical Co., Ltd., priority 1991, dated 1997)
“And” between values parts separate entries of the source, which are not always exact repeats. Equal entries are not always repeated.

How the values were obtained:
[1] = test system: HL-60 cells; assay: Differentiation of HL-60 cells (Giemsa and esterase staining); type: cell-based, human; conditions: day 27
Description: The concentration of HL-60 cells was adjusted to 1×10^5 cells/ml using RPMI-1640 medium (GIBCO) supplemented with 10% of FCS (fetal calf serum; GIBCO).
Giemsa stain solution was prepared by diluting Giemsa reagent (Merck) 50-100 times with phosphate buffer (pH 6.4).
A reagent for esterase staining (Muto Kagaku) was used according to the naphthol AS-D chloroacetate method.
HL-60 cells prepared as described above under (1) were cultivated in the same manner as in a). Cells collected on day 27 were placed on a slide glass and subjected to Giemsa staining, followed by morphological observation under a microscope. […] The results of esterase staining by the naphthol AS-D chloroacetate method indicated differentiation of 70-85% of HL-60 cells into granulocytes.

[2] = test system: B16 melanoma cells; assay: Effect on experimental model of pulmonary metastasis of B16 melanoma cells; type: in vivo, mouse (C57BL/6 mice); conditions: for No. of colonies in lungs, Mean: control 86.7; for No. of colonies in lungs, individual mice: 4 days
Description: B16 mouse melanoma cells [Koren, S. and Fleischmann, W. R., J. Interferon Research, i, 473-482 (198)], 2×10^6 cells, were suspended in Eagle's MEM medium (Nissui Pharmaceutical Co., Ltd.) supplemented with 10% FBS (Gibco) to which 3 or 10 μg/ml of Compound 1 was previously added or not added. The suspension was cultured in a 75-cm^2 flask (Corning) in an incubator (National Appliance Model 15300) at 37° C. under 5% carbon dioxide for 4 days. Then, the cells were washed with Dulbecco's PBS solution (Nissui pharmaceutical Co., Ltd.), and 0.05% trypsin (Flow Laboratories) was added to detach the cells from the flask. The cells were washed centrifugally (Hitachi 05PR-22, 1200 rpm, 5 minutes) twice and after addition of 0.2% trypan blue (Wako Pure Chemical Industries Ltd.), viable cells were counted using a hemocytometer (No. J7796, Kayagaki Works) and the cells were diluted with Hank's solution (Flow Laboratories)to a concentration of 5×10^6 cells/ml.
The cells obtained as above were transplanted, in a population of 3×10^5 cells each, into groups of 7 C57BL/6 mice (7 weeks old, female, purchased from Charles River Japan, Inc.) through the tail vein. Twelve days later, the mice were killed by cervical dislocation and the number of colonies metastatized to the lungs was determined.

In the case of COc1ccc(C(=O)N2CCN(c3ccc4c(c3)CCC(=O)N4)CC2)cc1OC [Compound 1, 6-[4-(3,4-Dimethoxybenzoyl)-1-piperazinyl]-3,4-dihydrocarbostyril], the “Morphological change, Giemsa staining” value [1] is reported as “differentiation into cells with granule was observed”, the “Differentiation of HL-60 cells into granulocytes (esterase staining)” value ([1]; naphthol AS-D chloroacetate method) is reported as 70-85% and the “No. of colonies in lungs, Mean” value ([2]; 3 μg/ml, *P < 0.05) is reported as 10.0 colonies. For the same compound, the “No. of colonies in lungs, Mean” value ([2]; 10 μg/ml) was 34.7 colonies, the “Inhibition of pulmonary metastasis (in words)” value ([2]; 3 or 10 μg/ml) was “evident inhibition of pulmonary metastasis” and the “No. of colonies in lungs, individual mice” value ([2]; cells pre-incubated with 3 μg/ml) was 14 colonies and 7 colonies and 11 colonies and 6 colonies and 8 colonies and 24 colonies and 0 colonies. The “No. of colonies in lungs, individual mice” value ([2]; cells pre-incubated with 10 μg/ml) was 17 colonies and 43 colonies (2×) and 65 colonies and 7 colonies and 46 colonies and 22 colonies.
